Test results as given in the NIST ThermoML archive (doi:10.1021/acs.jced.5b00011).
± gives the expanded uncertainty stated by the source.

Conditions: Liquid, Ebulliometric method (Recirculating still)

CC(=O)N(C)C [N,N-dimethylethanamide]
vapor or sublimation pressure (439.25 K): 101.33 ± 0.58 kPa

C1CCCCC1 [cyclohexane]
vapor or sublimation pressure (353.85 K): 101.33 ± 0.55 kPa

c1ccccc1 [benzene]
vapor or sublimation pressure (353.25 K): 101.33 ± 0.55 kPa

C1=CCCCC1 [cyclohexene]
vapor or sublimation pressure (356.15 K): 101.33 ± 0.55 kPa
